Consider 1 compound from patent US20030203969A1, “Pharmaceutically active aromatic guanylhydrazones” (priority 2000, published 2003).

In one data set the test system is Vero cells. The data set can be described thus: Cytotoxicity in uninfected Vero cells (HSV-1 experiments, MTS). The format is cell-based, African green monkey. Particulars: inhibits cell growth by 50%, read-out: TC50 (the source's name). The source says:
A virus-induced cytopathic effects (CPE)-inhibition assay procedure using Promega's Cell Titer Aqueous One Solution (MTS, metabolic dye) is employed to evaluate compounds for antiviral activity against herpes simplex virus type 1 (strain HF) in Vero cells (African green monkey cells, ATCC Cat. No. CCL-81). Vero cells are pregrown in 96-well tissue culture plates using Dulbecco's Modified Eagle's Medium (DMEM) supplemented with 10% heat-inactivated fetal bovine serum (FBS), L-glutamine, penicillin, and streptomycin. To each of the replicate cell cultures is added 50 μl of the test drug solution and 50 μl of virus suspension. Cell controls containing medium alone, virus-infected controls containing medium and virus, drug cytotoxicity controls containing medium and each drug concentration, reagent controls containing culture medium only (no cells), and drug calorimetric controls containing drug and medium (no cells) are run simultaneously with the test samples. The plates are incubated at 37° C. in a humidified atmosphere containing 5% CO2 until maximum CPE is observed in the untreated virus control cultures (Day 5). CPE inhibition is determined by a dye (MTS) uptake procedure. […] The purple color of the MTS formazan is then measured spectrophotometrically at 490/650 nm. […]

In a further data set the test system is PI-resistant HIV-1. Nature of the data set: Inhibition of multiple anti-retroviral drug resistant HIV-1 strains: PI-resistant. Format: cell-based. How it is done: In addition, various different “types” of multiple anti-retroviral drug resistant HIV-1 strains were also tested: […]
The next data set concerns clinical HIV-1 isolates. Nature of the data set: Inhibition of clinical HIV-1 isolates in PBMCs from HIV-1-infected patients. Format: cell-based. To be noted: d14. Here is the method:
HIV replication was measured either by p24 HIV Antigen Capture Assay Kit (ELISA; HIVAG-1 Monoclonal kit BIA011; Abbott) following the manufacturer's recommendation, or by using the Quantiplex HIV-1 RNA 3.0 Assay (bDNA) system (Chiron Diagnostics). The latter assay is a signal amplification nucleic acid probe assay (employing a sandwich nucleic acid hybridization procedure) for direct quantitation of HIV RNA in human plasma. There, in brief, HIV-1 is first concentrated from plasma by centrifugation. After release of genomic HIV-1 RNA from the virions, the RNA is captured to a microwell by a set of specific, synthetic oligonucleotide capture probes. A set of target probes hybridize to both the viral RNA and the pre-amplifier probes. The capture probes, comprised of 17 individual capture extenders, and the target probes, comprised of 81 individual target extenders, bind to different regions of the pol gene of the viral RNA. The amplifier probe hybridizes to the pre-amplifier forming a branched DNA (bDNA) complex. Then, multiple copies of an alkaline phosphatase labeled probe are hybridized to this immobilized bDNA complex. Detection is achieved by incubating the entire complex with a chemoluminescent substrate. Light emission is directly proportional to the amount of HIV-1 RNA present in each sample, and results are recorded as relative light units by an appropriate analyzer.
Peripheral blood mononuclear cells (PBMCs) from HIV-1-infected patients were isolated—(after informal consent was given)—by Biocoll (Biochrom) gradient centrifugation. 1×10^6/ml PBMCs were cultured (5 ml in a six well 32-mm plate) in presence of the test drugs or in DMSO (control diluent) in RPMI 1640 medium supplemented with 10% autologous serum and 2 mM L-Glutamine at 37° C. and 5% CO2.
The culture medium was changed every 3 days during the experiments. Once a week, each culture was split 1:1 and 2×10^6 feeder-PBMCs (per well) and recombinant Interleukin 2 (IL-2) [10U/ml] (Roche) was added. Prior to addition to the cell cultures, the feeder-PBMCs, prepared from 4 healthy donors, were treated for 4 days with PHA-P and PB (2 μg/ml each per 2×10^6 cells). At day 14, viability of the PBMCs (Trypan-blue staining), cell count and virus load (p24 antigen: Innotest HIV Antigen mAb, Innogenetics N. V., Gent, Belgium, or bDNA: HIV-1 RNA 3.0 Assay, Bayer AG, Tarrytown, N.Y., USA) was determined. No significant differences in cell viability were observed (˜75-80% vital cells).
At day 14 of cultivation, the virus replicated vigorously in all untreated cultures. Numbers describe percent inhibition of HIV-1 replication as compared to control experiments.

SMILES strings stand for the structures.

Consider `CC(=NNC(=N)N)c1cc(NC(=O)CCCCCCCCC(=O)Nc2cc(C(C)=NNC(=N)N)cc(C(C)=NNC(=N)N)c2)cc(C(C)=NNC(=N)N)c1` [Compound 4, N,N′-bis (3,5-diacetylphenyl) decane diamide tetrakis (amidinohydrazone)], for which the CC50 with Vero cells came out at 20.6 µM. For the same compound, the “[%] inhibition of virus replication” value with PI-resistant HIV-1 (PI-resistant HIV-1, 0.5 μM) was determined as 50%; in the data set with PI-resistant HIV-1 (PI-resistant HIV-1, 1.0 μM), 95%. Moreover, the “percent inhibition of HIV-1 replication as compared to control” value with clinical HIV-1 isolates (HIV-infected PBMCs from patient 1, 0.5 μM) came out at 91.6%; with clinical HIV-1 isolates (HIV-infected PBMCs from patient 1, 1.0 μM) it was 90.7%; in the data set on clinical HIV-1 isolates (HIV-infected PBMCs from patient 2, 0.5 μM), 85.8%; in the data set on clinical HIV-1 isolates (HIV-infected PBMCs from patient 2, 1.0 μM), 97.6%; in the data set on clinical HIV-1 isolates (HIV-infected PBMCs from patient 3, 0.5 μM), 91%; in the data set with clinical HIV-1 isolates (HIV-infected PBMCs from patient 3, 1.0 μM), 90%.
